US20030215462A1, “Use of UGT inhibitors to increase bioavailability” (priority 2001, published 2003)
Several values for one entry are separate records, joined by “and”; a condition that tells them apart may be missing. Equal entries are not always repeated. Where two headings read alike, the source gives them in different places. Each block holds one molecule with its values, some of them ahead of it.

What was measured:
[1] = test system: UGT enzymes of human liver microsomes; assay: Inhibition of 7-HFC glucuronidation in human liver microsomes; type: biochemical; conditions: 7-HFC 50 μM, human liver microsomes 100 μg/ml, 15 min
[2] = test system: T1, UGT enzymes of human liver microsomes; assay: as above; type: biochemical; conditions: 7-HFC 50 μM, human liver microsomes 100 μg/ml, 15 min
T1 construct: percentage of control metabolism, 7-HFC glucuronidation; percentage of control metabolism, 7-HFC glucuronidation

[3] = test system: UGT enzymes of human liver microsomes; assay: Inhibition of raloxifene glucuronidation (G1, G2) in human liver microsomes; type: biochemical
Description: Compounds were eluted using a binary solvent gradient system. […] Solvent B was methanol. […] Detection was at 280 nm.

UGT1A1 [4] = target: T2, UGT1A1 (Homo sapiens, UniProt P22309); assay: in vitro
T2 sequence (P22309 26-533): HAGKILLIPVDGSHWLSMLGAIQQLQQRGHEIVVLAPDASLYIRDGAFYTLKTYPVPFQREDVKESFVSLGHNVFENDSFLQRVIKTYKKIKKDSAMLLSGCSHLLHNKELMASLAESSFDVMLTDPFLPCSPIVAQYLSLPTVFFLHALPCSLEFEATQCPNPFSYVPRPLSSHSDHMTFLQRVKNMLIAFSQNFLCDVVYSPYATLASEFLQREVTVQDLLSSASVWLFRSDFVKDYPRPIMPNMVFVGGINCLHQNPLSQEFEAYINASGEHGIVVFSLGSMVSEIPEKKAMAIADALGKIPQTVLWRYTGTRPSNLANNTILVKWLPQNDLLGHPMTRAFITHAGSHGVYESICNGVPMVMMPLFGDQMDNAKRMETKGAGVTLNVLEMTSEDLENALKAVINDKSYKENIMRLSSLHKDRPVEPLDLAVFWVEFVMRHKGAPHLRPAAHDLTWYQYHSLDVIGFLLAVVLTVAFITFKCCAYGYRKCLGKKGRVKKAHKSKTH
Description: (§1) Compounds were eluted using a binary solvent gradient system. Solvent A was water brought to pH 8 with NH4OH. Solvent B was methanol. Solvent flow rate was 1 ml/min and the column temperature was maintained at 50° C. Detection was at 280 nm. […] The system was then returned to the initial conditions and equilibrated for 3 min.

UGT1A3 [5] = target: T3, UGT1A3 (Homo sapiens, UniProt P35503); assay: in vitro
T3 sequence (P35503 29-534): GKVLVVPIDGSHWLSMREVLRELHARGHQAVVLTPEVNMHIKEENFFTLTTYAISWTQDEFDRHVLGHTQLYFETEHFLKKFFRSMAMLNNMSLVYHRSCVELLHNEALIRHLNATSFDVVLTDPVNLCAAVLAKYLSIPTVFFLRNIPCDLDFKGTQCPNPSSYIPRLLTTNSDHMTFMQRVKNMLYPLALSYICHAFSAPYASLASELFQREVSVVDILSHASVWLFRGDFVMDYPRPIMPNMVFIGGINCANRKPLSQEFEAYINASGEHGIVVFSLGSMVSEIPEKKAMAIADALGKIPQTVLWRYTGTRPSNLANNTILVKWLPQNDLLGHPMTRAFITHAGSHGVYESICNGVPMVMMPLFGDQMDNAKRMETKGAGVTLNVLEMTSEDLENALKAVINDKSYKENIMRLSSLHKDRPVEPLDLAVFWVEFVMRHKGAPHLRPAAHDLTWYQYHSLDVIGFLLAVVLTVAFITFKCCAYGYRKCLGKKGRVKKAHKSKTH
Description: as §1

UGT1A10 [6] = target: T4, UGT1A10 (Homo sapiens, UniProt Q9HAW8); assay: in vitro; conditions: pH 7.5, % of control metabolism
T4 sequence (Q9HAW8 26-530): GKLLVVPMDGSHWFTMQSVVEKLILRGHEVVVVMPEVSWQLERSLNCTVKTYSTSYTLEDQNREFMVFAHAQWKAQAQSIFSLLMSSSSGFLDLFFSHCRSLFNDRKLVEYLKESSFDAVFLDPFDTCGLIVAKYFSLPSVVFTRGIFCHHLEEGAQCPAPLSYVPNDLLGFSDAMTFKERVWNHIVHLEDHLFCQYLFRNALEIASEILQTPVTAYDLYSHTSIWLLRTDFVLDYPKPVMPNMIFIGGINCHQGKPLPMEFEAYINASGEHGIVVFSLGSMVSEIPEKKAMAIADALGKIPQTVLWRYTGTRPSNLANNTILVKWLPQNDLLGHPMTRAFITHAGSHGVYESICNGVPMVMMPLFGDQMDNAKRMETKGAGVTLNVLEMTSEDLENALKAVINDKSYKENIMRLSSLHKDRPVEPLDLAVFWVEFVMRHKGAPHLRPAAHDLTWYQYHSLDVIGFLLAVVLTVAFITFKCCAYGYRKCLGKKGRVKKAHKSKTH
Description: as §1

UGT1A1 [7] = target: T2, UGT1A1; assay: Inhibition of raloxifene glucuronidation by recombinant UGT1A1 Supersomes; conditions: UGT1A1
Description: as §1

UGT1A3 [8] = target: T3, UGT1A3; assay: Inhibition of raloxifene glucuronidation by recombinant UGT1A3 Supersomes; conditions: UGT1A3
Description: as §1

UGT1A9 = target: T5, UGT1A9 (Homo sapiens, UniProt O60656); assay: Inhibition of raloxifene glucuronidation by recombinant UGT1A9 Supersomes; conditions: for activity at 15 min, 50 µM: human, Supersomes with recombinant human UGT1A9, pH 7.5, probe raloxifene 50 μM
T5 sequence (O60656 26-530): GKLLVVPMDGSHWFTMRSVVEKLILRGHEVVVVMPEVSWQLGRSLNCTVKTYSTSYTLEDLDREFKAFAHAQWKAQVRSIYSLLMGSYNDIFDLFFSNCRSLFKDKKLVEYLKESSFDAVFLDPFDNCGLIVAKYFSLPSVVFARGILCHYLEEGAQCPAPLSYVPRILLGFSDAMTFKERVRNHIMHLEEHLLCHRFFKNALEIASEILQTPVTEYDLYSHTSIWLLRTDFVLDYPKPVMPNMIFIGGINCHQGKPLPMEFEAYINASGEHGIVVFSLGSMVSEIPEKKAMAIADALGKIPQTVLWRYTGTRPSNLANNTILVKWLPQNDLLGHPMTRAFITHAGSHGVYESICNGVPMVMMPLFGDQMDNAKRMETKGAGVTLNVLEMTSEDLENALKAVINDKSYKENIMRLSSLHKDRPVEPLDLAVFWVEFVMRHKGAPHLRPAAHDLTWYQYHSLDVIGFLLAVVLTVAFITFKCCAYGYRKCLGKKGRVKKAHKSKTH
Description: as §1

UGT1A10 [9] = target: T4, UGT1A10; assay: Inhibition of raloxifene glucuronidation by recombinant UGT1A10 Bacculosomes; conditions: UGT1A10
Description: as §1

[10] = G1, inhibitor 500 μM, raloxifene 50 μM, human liver microsomes 250 μg/ml, 15 min
[11] = G2, inhibitor 500 μM, raloxifene 50 μM, human liver microsomes 250 μg/ml, 15 min
[12] = raloxifene 50 μM, inhibitor 100 μM
[13] = pH 7.5, % of control metabolism, raloxifene G1
[14] = pH 7.5, % of control metabolism, raloxifene G2

% of control metabolism (SD, n = 3), 7-HFC glucuronidation ([1]; inhibitor 1000 μM): 32 (1) %
% of control metabolism (SD, n = 3), 7-HFC glucuronidation ([1]; inhibitor 2000 μM): 26 (1) %
% of control metabolism (SD, n = 3), 7-HFC glucuronidation ([2]; inhibitor 100 μM): 86 (2) %
% of control metabolism (SD, n = 3), 7-HFC glucuronidation ([2]; inhibitor 200 μM): 72 (2) %
% of control metabolism (SD, n = 3), 7-HFC glucuronidation ([2]; inhibitor 500 μM): 53 (2), % and 53 (1) %
% of control metabolism (SD, n = 3), raloxifene glucuronide G1 [3, 10]: 76 (1) %
% of control metabolism (SD, n = 3), raloxifene glucuronide G2 [3, 11]: 69 (0) %
Structure (SMILES): CC(=O)OC1CC(C)CCC1C(C)C (single isomer, unassigned; (-)) [(−)-Menthyl acetate]

Structure (SMILES): CC(C)[C@@H]1CC[C@@H](C)C[C@H]1O [(L)-Menthol]
% of control metabolism (SD, n = 3), 7-HFC glucuronidation ([1]; inhibitor 1000 μM): 72 (1) %
% of control metabolism (SD, n = 3), 7-HFC glucuronidation ([1]; inhibitor 2000 μM): 53 (0) %
% of control metabolism (SD, n = 3), 7-HFC glucuronidation ([2]; inhibitor 500 μM): 75 (2), % and 80 (2) %
% of control metabolism (SD, n = 3), raloxifene glucuronide G1 [3]: 108 (4) %
% of control metabolism (SD, n = 3), raloxifene glucuronide G2 [3]: 97 (2) %

% of control metabolism (SD, n = 3), 7-HFC glucuronidation ([2]; inhibitor 500 μM): 83 (2) %
% of control metabolism (SD, n = 3), raloxifene glucuronide G1 ([3]; G1, inhibitor 100 μM, raloxifene 50 μM, human liver microsomes 250 μg/ml, 15 min): 89 (3) %
% of control metabolism (SD, n = 3), raloxifene glucuronide G1 [3, 10]: 43 (5) %
% of control metabolism (SD, n = 3), raloxifene glucuronide G2 ([3]; G2, inhibitor 100 μM, raloxifene 50 μM, human liver microsomes 250 μg/ml, 15 min): 89 (2) %
% of control metabolism (SD, n = 3), raloxifene glucuronide G2 [3, 11]: 47 (1) %
% of control metabolism, raloxifene G1 [3, 12]: 89 (3) %
% of control metabolism, raloxifene G2 [3, 12]: 89 (2) %
activity at 15 min, 50 µM (UGT1A1 [4]; [13]): 90%
activity at 15 min, 50 µM (UGT1A1 [4]; [14]): 89%
activity at 15 min, 50 µM (UGT1A1 [4]; pH 7.5, Inhibition of raloxifene glucuronidation, G1, UGT1A1): 90%
activity at 15 min, 50 µM (UGT1A1 [4]; pH 7.5, Inhibition of raloxifene glucuronidation, G2, UGT1A1): 89%
activity at 15 min, 50 µM (UGT1A3 [5]; [13]): 95%
activity at 15 min, 50 µM (UGT1A3 [5]; [14]): 87%
activity at 15 min, 50 µM (UGT1A3 [5]; pH 7.5, Inhibition of raloxifene glucuronidation, G1, UGT1A3): 95%
activity at 15 min, 50 µM (UGT1A3 [5]; pH 7.5, Inhibition of raloxifene glucuronidation, G2, UGT1A3): 87%
activity at 15 min, 50 µM (UGT1A10 [6]; raloxifene G1): 110%
activity at 15 min, 50 µM (UGT1A10 [6]; raloxifene G2): 98%
inhibition of raloxifene glucuronidation, in words (UGT1A1 [7]): poor inhibitors
inhibition of raloxifene glucuronidation, in words (UGT1A3 [8]): poor inhibitors
inhibition of raloxifene glucuronidation, in words (UGT1A9; UGT1A9): poor inhibitors
activity at 15 min, 50 µM (UGT1A9; formation of glucuronide G1, % of control metabolism, raloxifene G1, UGT1A9, inhibitor 50 μM): 81%
activity at 15 min, 50 µM (UGT1A9; formation of glucuronide G2, % of control metabolism, raloxifene G2, UGT1A9, inhibitor 50 μM): 83%
Inhibition of raloxifene glucuronidation, UGT1A9, second line per inhibitor (G2) (UGT1A9; second line (G2, metabolite not given), inhibitor 50 μM, raloxifene 50 μM, 250 μg/ml Supersomes, 1 mM UDPGA, 15 min): 83 (3)
inhibition of raloxifene glucuronidation, in words (UGT1A10 [9]): poor inhibitors
Structure (SMILES): COc1c(C)c2c(c(O)c1C/C=C(\C)CCC(=O)O)C(=O)OC2 [Mycophenolic acid, reference compound]
